For one assay, the system named is MCF7. The assay is described as follows: Cytotoxicity against human MCF7 cells assessed as reduction in cell viability up to 100 uM after 72 hrs by CCK-8 assay. The format is functional, cell-based.
The test system of another assay is HL-60. The assay is described as follows: Cytotoxicity against human HL60 cells assessed as reduction in cell viability up to 100 uM after 72 hrs by CCK-8 assay. It is filed as functional, cell-based. Background: Tetrazolium assays rely on reduction of a dye to a coloured formazan, in cell work by metabolically active cells.
Assay [1] has as its system U-937. In words: Cytotoxicity against human U937 cells assessed as reduction in cell viability up to 100 uM after 72 hrs by CCK-8 assay. It is filed as functional, cell-based.
A further assay deals with DU-145. In words: Cytotoxicity against human DU145 cells assessed as reduction in cell viability up to 100 uM after 72 hrs by CCK-8 assay. The format is functional, cell-based.
Assay [2] has as its system Influenza A virus. The assay is described as follows: Antiviral activity against influenza A virus H1N1 assessed as inhibition of virus-induced cytopathic effect up to 100 uM after 48 hrs by crystal violet staining based assay. The format is functional, organism-based.
The subject of a further assay is K562. The assay is described as follows: Cytotoxicity against human K562 cells assessed as reduction in cell viability up to 100 uM after 72 hrs by CCK-8 assay. It is filed as functional, cell-based.
In assay [3] the test system is Influenza A virus. The assay is described as follows: Antiviral activity against influenza A virus H3N2 assessed as inhibition of virus-induced cytopathic effect up to 100 uM after 48 hrs by crystal violet staining based assay. The format is functional, organism-based. In general terms: Damage to the host cells serves as the signal in cytopathic effect assays.
In assay [4] the test system is HT-29. The assay is described as follows: Cytotoxicity against human HT-29 cells assessed as reduction in cell viability up to 100 uM after 72 hrs by CCK-8 assay. It is filed as functional, cell-based.
A further assay deals with A549. The assay is described as follows: Cytotoxicity against human A549 cells assessed as reduction in cell viability up to 100 uM after 72 hrs by CCK-8 assay. The format is functional, cell-based.
A further assay concerns HeLa. In words: Cytotoxicity against human HeLa cells assessed as reduction in cell viability up to 100 uM after 72 hrs by CCK-8 assay. It is filed as functional, cell-based.
Another assay concerns RAW264.7. In words: Inhibition of LPS-induced NO production in mouse RAW264.7 cells after 24 hrs by Griess assay. The format is functional, cell-based. The conditions noted are these: RAW264.7, 24 h.
Assay [5] relates to HT-29. In words: Cytotoxicity against human HT-29 cells assessed as reduction in cell viability after 72 hrs by CCK-8 assay. The format is functional, cell-based. Particulars: HT-29, 72 h.
The subject of assay [6] is U-937. The assay is described as follows: Cytotoxicity against human U937 cells assessed as reduction in cell viability after 72 hrs by CCK-8 assay. It is filed as functional, cell-based. Particulars: U-937, 72 h.

Each structure is given as a SMILES string. Active and inactive are the calls of the source. The calls are words filed in the database; no cut-off is given here.

With `COC(OC)C1=CC2=CC(=O)C=C[C@]2(C)CC[C@@H]1C`, the outcome in the assay on MCF7, in the assay with HL-60, in the assay with U-937 [1], with DU-145, in the assay on K562 and in the assay on HT-29 [4] was inactive. Besides, the outcome in the assay on A549 and in the assay on HeLa was inactive. In addition, the inhibition entry with Influenza A virus [2] and with Influenza A virus [3] was “inactive” each time.
Regarding `C[C@H]1CC[C@]2(C)C(=CCC[C@H]2O)C=C1CO`, the outcome in the assay with MCF7, with HL-60, in the assay on U-937 [1], in the assay with DU-145, in the assay with K562 and in the assay with HT-29 [4] was inactive. For the same compound, the outcome in the assay on A549 and with HeLa was inactive. For the same compound, the inhibition entry in the assay on Influenza A virus [2] and in the assay on Influenza A virus [3] was “inactive” in each case.
Take `CC1=CC[C@@]2(C)[C@H](O)CC[C@@H](C(=O)O)[C@@H]2C=C1C`: the outcome with MCF7, in the assay with HL-60, with U-937 [1], in the assay on DU-145, in the assay on K562 and with HT-29 [4] was inactive. The outcome in the assay with A549 and in the assay on HeLa was inactive. The inhibition entry in the assay on Influenza A virus [2] and with Influenza A virus [3] was “inactive” throughout.
For `C[C@H]1CC[C@@]2(C)C=CC(=O)C=C2C=C1C(=O)O`, the result with MCF7, in the assay on HL-60, with U-937 [1], in the assay on DU-145, in the assay with K562 and with HT-29 [4] was inactive. The outcome in the assay with A549 and in the assay on HeLa was inactive. Also, the inhibition entry with Influenza A virus [2] and in the assay with Influenza A virus [3] was “inactive” each time.
`C[C@H]1CC[C@]2(C)C(=CCC[C@H]2O)C=C1C(=O)O`: the result with MCF7, in the assay with HL-60, in the assay on U-937 [1], in the assay on DU-145, with K562 and in the assay on HT-29 [4] was inactive. The outcome with A549 and in the assay with HeLa was inactive. Moreover, the inhibition result in the assay with Influenza A virus [2] and with Influenza A virus [3] was “inactive” throughout.
Consider `C[C@H]1CC[C@@]2(C)C=CC(=O)C=C2C=C1C=O`, for which the result in the assay with MCF7, with HL-60, in the assay on U-937 [1], in the assay on DU-145, with K562 and in the assay with HT-29 [4] was inactive. Moreover, the outcome in the assay on A549 and in the assay with HeLa was inactive. Besides, the inhibition entry in the assay with Influenza A virus [2] and with Influenza A virus [3] was “inactive” each time.
For orientation: IC50 means the concentration needed to halve the response being measured. Consider `CC1=CC([C@@H](CCC(=O)O)C(=O)O)=C(C)CC[C@@H]1C`, for which the result in the assay with MCF7, in the assay with HL-60, in the assay with U-937 [1], in the assay with DU-145, in the assay on K562 and with HT-29 [4] was inactive. Moreover, the result in the assay on A549 and with HeLa was inactive. In the assay with RAW264.7, this compound returned an IC50 of 18300 nM. Besides, the inhibition entry in the assay on Influenza A virus [2] and in the assay with Influenza A virus [3] was “inactive” each time.
Take `C[C@H]1CC[C@@]2(C)C=CC(=O)C=C2C=C1CO`: the result in the assay on MCF7, with HL-60, in the assay with U-937 [1], in the assay on DU-145, with K562 and in the assay with HT-29 [4] was inactive. The result in the assay with A549 and in the assay with HeLa was inactive. Further, the inhibition entry with Influenza A virus [2] and with Influenza A virus [3] was “inactive” in each case.
For `CC1=CC([C@@H](CCCO)C(=O)O)=C(C)CC[C@@H]1C`, the outcome with MCF7, with HL-60, in the assay on U-937 [1], in the assay on DU-145, with K562 and in the assay with HT-29 [4] was inactive. The result in the assay on A549 and with HeLa was inactive. The compound further showed a 50% inhibitory concentration (IC50) in the assay with RAW264.7 of 14600 nM. Further, the inhibition entry in the assay on Influenza A virus [2] and in the assay with Influenza A virus [3] was “inactive” in each case.
`C[C@@H]1C[C@H]2[C@@H]3CCC4=CC(=O)C=C[C@]4(C)[C@@]3(F)[C@@H](O)C[C@]2(C)[C@@]1(O)C(=O)CO` [DEXAMETHASONE] showed an IC50 in the assay with RAW264.7 of 2500 nM.
With `CC(=O)O[C@H]1C(=O)[C@@]2(C)[C@H]([C@H](OC(=O)c3ccccc3)[C@]3(O)C[C@H](OC(=O)[C@H](O)[C@@H](NC(=O)c4ccccc4)c4ccccc4)C(C)=C1C3(C)C)[C@]1(OC(C)=O)CO[C@@H]1C[C@@H]2O` [PACLITAXEL], the IC50 in the assay on HT-29 [5] is 3 nM; in the assay on U-937 [6], 1.7 nM.

Source of the values: ChEMBL document CHEMBL4190215, “Ochracenes A-I, Humulane-Derived Sesquiterpenoids from the Antarctic Fungus Aspergillus ochraceopetaliformis” (J Nat Prod, 2017).
